Columns and labels:
[1] = test system: Daoy, KNS42 and IMR32 brain cancer cells; experiment: Annexin V/FITC apoptosis assay (FIGS. 2A-2C); format: cell-based
Protocol: The percentage of apoptotic cells with 20 µM moxidectin treatment ranged from 90-100% in all the brain cancer cell lines tested (FIGS. 2A-2C).
Induction of apoptosis by moxidectin. The mode of cell death caused by moxidectin treatment was determined by Annexin V/FITC assay in Daoy, KNS42 and IMR32 brain cancer cells. […] 15 µM moxidectin induced -80% apoptosis in Daoy, KNS42 and IMR32 brain cancer cell lines. The percentage of apoptotic cells with 20 µM moxidectin treatment ranged from 90-100% in all the brain cancer cell lines tested (FIGS. 2A-2C). Induction of apoptosis by moxidectin treatment in these cell lines was further assessed by increase in the cleavage of caspase 3 and PARP (FIG. 3).

[2] = test system: Daoy cells (medulloblastoma); experiment: Subcutaneously implanted Daoy tumor growth in mice; format: in vivo; conditions: subcutaneous Daoy
Protocol: (§1) Moxidectin suppresses the growth of subcutaneously implanted brain cancer cells. To evaluate the ability of moxidectin in inhibiting the growth of brain tumor cells in vivo, ~ 4 million Daoy cells were injected subcutaneously into the right flank of the mice. Once the tumor cells started growing and the tumor volume reached ~ 70 mm^3, mice were randomized into four groups. Control group received the vehicle whereas the treatment group received 2.5 mg/kg, 5 mg/kg and 10 mg/kg moxidectin once every day. The tumor readings were taken twice a week throughout the course of the experiment using Vernier caliper. […] Similarly, 2.5 mg/kg and 5 mg/kg moxidectin suppressed Daoy tumor growth by 45% and 60% respectively (FIG. 4B).
as §1, with “4C). […] In another experiment, ~0.3 million Daoy luc cells were injected intracranially in the brain of athymic nude mice. The mice were given 2.5 mg/kg for 33 days. Moxidectin was able to inhibit -65% of intracranially implanted medulloblastoma tumors. […] Additionally, ~ 3 million SK-N-AS neuroblastoma cells were injected subcutaneously in the right flank of the mice. Mice were randomized on day 10. Treatment group received 3.5 mg/kg moxidectin. The experiment was terminated on day 23. Moxidectin was able to inhibit 60% of subcutaneously implanted neuroblastoma tumors (FIG. 4D).” for “4B).”

[3] = test system: Daoy, UW228, ONS76, UW426, PFSK1 and IMR32 brain cancer cells; experiment: Annexin V/FITC apoptosis assay (FIGS. 6A-6F); format: cell-based
Protocol: (§2) The mode of cell death caused by moxidectin treatment was determined by Annexin V/FITC assay in Daoy, UW228, ONS76, UW426, PFSK1 and IMR32 brain cancer cells (FIGS. 6A-6F, resepectively). […] 15 µM moxidectin induced -80% apoptosis in Daoy and IMR32 brain cancer cell lines. The percentage of apoptotic cells with 20 µM moxidectin treatment ranged from 90-100% in all the brain cancer cell lines. Induction of apoptosis by moxidectin treatment in these cell lines was further assessed by increase in the cleavage of caspase 3 and PARP (FIG. 3).
as §2, with “FIGS. 6A-6F show the induction of apoptosis by moxidectin. The mode” for “The mode”, “PARP (FIG. 7).” for “PARP (FIG. 3).”

STAT3 = experiment: Western blotting of STAT3 phosphorylation in treated brain cancer cells; format: cell-based; conditions: Daoy, IMR32, KNS42; 0, 10, 15 and 20 µM, 48 hours
Protocol: (§3) Moxidectin inhibits JAK-STAT signaling. In order to delineate the mechanism by which moxidectin mediates its anti-cancer effects in brain cancer cell lines, Daoy, IMR32, and KNS42 cells were treated with 0, 10, 15 and 20 µM moxidectin for 48 hours and evaluated by western blotting. […] It has been reported that, upon activation (phosphorylation) JAK2 activates multiple downstream transcription factors one of which is STAT3. Hyper activation of STAT3 in cancer cells is strongly attributed to evasion of apoptosis and transcriptional activation of anti-apoptotic proteins such as Bcl-2 and c-myc.
(§4) It has been reported that, upon activation (phosphorylation) JAK2 activates multiple downstream transcription factors one of which is STAT3. Hyperactivation of STAT3 in cancer cells is strongly attributed to evasion of apoptosis and transcriptional activation of anti-apoptotic proteins such as Bcl-2 and c-myc.

[4] = test system: Daoy (medulloblastoma), IMR32 (neuroblastoma) and KNS42 (glioblastoma) cells; experiment: Proliferation / survival of brain cancer cells (FIGS. 1A-1C); format: cell-based
Text: Moxidectin treatment suppresses the proliferation of brain cancer cells.

Janus Kinase 2 (JAK2) = experiment: Western blotting of JAK2 in treated brain cancer cells; format: cell-based; conditions: Daoy, IMR32, KNS42, 0, 10, 15 and 20 µM, 48 hours
Protocol: Daoy, IMR32, and KNS42 cells were treated with 0, 10, 15 and 20 µM moxidectin for 48 hours and evaluated by western blotting.
as §3, §4

[5] = test system: Daoy luc cells (medulloblastoma); experiment: Intracranially implanted Daoy luc tumors in mice; format: in vivo, athymic nude mice; conditions: 2.5 mg/kg for 33 days; intracranial Daoy luc
Bcl-2 = experiment: Western blotting of Bcl-2 expression in treated brain cancer cells; format: cell-based; conditions: Daoy, IMR32 and KNS42; 48 hours
Protocol: as §3
(§5) Moreover, moxidectin increased the cleavage of caspase 3 and PARP as an indication of apoptosis, a primary mode of cell death (FIG. 3).
(§6) Moreover, moxidectin increased the cleavage of caspase 3 and PARP as an indication of apoptosis, a primary mode of cell death (FIG. 7).

[6] = test system: Daoy, UW228, ONS76, UW246, PFSK1 (medulloblastoma), IMR32, SF268, SF295 (glioblastoma), SK-N-AS (neuroblastoma) cells; experiment: Proliferation / survival of brain cancer cell line panel (FIGS. 5A-5I); format: cell-based
[7] = test system: SK-N-AS neuroblastoma cells; experiment: Subcutaneously implanted SK-N-AS neuroblastoma tumors in mice; format: in vivo; conditions: 3.5 mg/kg; randomized day 10, terminated day 23
caspase 3 and PARP = experiment: Western blotting of caspase 3 and PARP cleavage in treated brain cancer cells; format: cell-based; conditions: Daoy, IMR32 and KNS42; 48 hours
Protocol: as §3, §5, §6

[8] = treatment for 48 hours, all brain cancer cells
[9] = varying concentrations, concentration and time-dependent

`CO/N=C1\C[C@]2(C[C@@H]3C[C@@H](C/C=C(\C)C[C@@H](C)/C=C/C=C4\CO[C@@H]5[C@H](O)C(C)=C[C@@H](C(=O)O3)[C@]45O)O2)O[C@H](/C(C)=C/C(C)C)[C@H]1C` [Moxidectin] was tested, and the apoptotic effects ([1]; 10 µM, 48 hours, all three cell lines) was “minimal apoptotic effects”, the apoptosis induced ([1]; 15 µM, 48 hours, Daoy, KNS42 and IMR32) was 80% and the “percentage of apoptotic cells” value ([1]; 20 µM, 48 hours, all cell lines tested) was 90-100%. For the same compound, the apoptosis [1, 8] was “significant increase”, the “suppression of tumor growth” value ([2]; 2.5 mg/kg once every day) was 45% and the “suppression of tumor growth” value ([2]; 5 mg/kg once every day) was 60%. For the same compound, the “suppression of tumor growth” value ([2]; 10 mg/kg once every day) was 90%, the apoptotic effects ([3]; 10 µM, 48 hours, all cell lines tested) was “minimal apoptotic effects” and the apoptosis induced ([3]; 15 µM, 48 hours, Daoy and IMR32) was 80%. The “percentage of apoptotic cells” value ([3]; 20 µM, 48 hours, all cell lines) was 90-100%, the apoptosis [3, 8] was “significant increase” and the “phosphorylation of STAT3 at Tyr705” value (STAT3) was “reduced”. For the same compound, the IC50 ([4]; Daoy, IMR32 and KNS42, 24, 48 and 72-hour time point) was 11 to 16 µM, the survival of cells [4, 9] was “significant reduction” and the “protein level of JAK2” value (Janus Kinase 2 (JAK2)) was “remained unchanged”. The “phosphorylation of JAK2 at Tyr1007/1008” value (Janus Kinase 2 (JAK2); concentration-dependent) was “reduced”, the inhibition of intracranially implanted tumors [5] was 65% and the “expression of anti-apoptotic protein Bcl-2” value (Bcl-2) was “reduced”. For the same compound, the IC50 ([6]; all brain cancer cell lines, 24, 48 and 72-hour time point) was 9.7 to 30 µM, the survival of cells [6, 9] was “significant reduction” and the “inhibition of subcutaneously implanted neuroblastoma tumors” value [7] was 60%. The “cleavage of caspase 3 and PARP” value (caspase 3 and PARP) was “increased”.

From patent US20230038646A1, “NOVEL AND POTENT JAK/STAT INHIBITOR” (Texas Tech University System, priority 2020, published 2023)
